Residue numbers refer to the chain shown, from its start.
Experiments:
Sestrin2 (FLAG-Sestrin2) [1] = molecular target: T1, Sestrin2 (FLAG-Sestrin2) (Homo sapiens, UniProt P58004, L261A); assay: [3H]Leucine binding, FLAG immunoprecipitate on beads; settings: labelled compound
T1 sequence (P58004 1-480 L261A): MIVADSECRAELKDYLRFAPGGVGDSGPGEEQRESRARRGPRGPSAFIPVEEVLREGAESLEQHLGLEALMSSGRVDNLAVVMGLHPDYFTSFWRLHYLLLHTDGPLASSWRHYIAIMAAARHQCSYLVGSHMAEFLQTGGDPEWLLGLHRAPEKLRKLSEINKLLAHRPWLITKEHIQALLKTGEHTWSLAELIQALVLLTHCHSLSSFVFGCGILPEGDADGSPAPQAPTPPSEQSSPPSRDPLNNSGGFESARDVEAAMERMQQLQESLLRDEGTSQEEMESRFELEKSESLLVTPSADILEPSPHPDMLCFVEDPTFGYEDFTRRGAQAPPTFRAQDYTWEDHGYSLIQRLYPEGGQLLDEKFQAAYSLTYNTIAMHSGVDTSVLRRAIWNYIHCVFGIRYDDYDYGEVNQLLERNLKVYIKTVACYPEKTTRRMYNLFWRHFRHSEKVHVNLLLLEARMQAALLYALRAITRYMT

Sestrin3 = molecular target: T2, Sestrin3 (Homo sapiens, UniProt P58005); assay: as above; settings: labelled compound
T2 sequence (P58005 1-492): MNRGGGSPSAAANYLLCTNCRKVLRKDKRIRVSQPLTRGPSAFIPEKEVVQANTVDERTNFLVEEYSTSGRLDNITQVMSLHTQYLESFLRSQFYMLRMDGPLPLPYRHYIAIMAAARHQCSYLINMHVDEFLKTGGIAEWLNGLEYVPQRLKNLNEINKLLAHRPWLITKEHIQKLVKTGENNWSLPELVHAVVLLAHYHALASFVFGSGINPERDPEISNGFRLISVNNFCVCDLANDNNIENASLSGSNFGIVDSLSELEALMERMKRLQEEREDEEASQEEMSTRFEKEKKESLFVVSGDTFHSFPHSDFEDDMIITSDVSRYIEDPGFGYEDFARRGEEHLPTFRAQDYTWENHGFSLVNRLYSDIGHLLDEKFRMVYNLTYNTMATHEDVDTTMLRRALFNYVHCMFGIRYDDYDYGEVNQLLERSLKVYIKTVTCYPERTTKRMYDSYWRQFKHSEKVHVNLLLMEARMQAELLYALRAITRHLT

Sestrin1 (two isoforms) = molecular target: T3, Sestrin1 (two isoforms) (Homo sapiens, UniProt Q9Y6P5); assay: as above; settings: labelled compound
T3 sequence (Q9Y6P5 1-492): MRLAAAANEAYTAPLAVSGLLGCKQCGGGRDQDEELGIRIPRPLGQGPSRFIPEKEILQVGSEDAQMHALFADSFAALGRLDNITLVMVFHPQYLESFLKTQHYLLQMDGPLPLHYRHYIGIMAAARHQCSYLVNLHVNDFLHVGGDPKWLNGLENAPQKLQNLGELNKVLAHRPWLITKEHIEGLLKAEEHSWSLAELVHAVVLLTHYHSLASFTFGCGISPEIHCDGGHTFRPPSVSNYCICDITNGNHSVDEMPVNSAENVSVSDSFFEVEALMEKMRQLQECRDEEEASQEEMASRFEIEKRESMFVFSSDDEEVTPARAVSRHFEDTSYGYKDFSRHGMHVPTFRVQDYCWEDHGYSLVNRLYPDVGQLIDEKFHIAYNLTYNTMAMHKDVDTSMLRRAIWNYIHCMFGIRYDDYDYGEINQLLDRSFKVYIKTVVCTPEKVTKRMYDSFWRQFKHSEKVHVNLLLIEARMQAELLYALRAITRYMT

[2] = molecular target: T4, His-MBP-Sestrin2 (bacterially-produced Sestrin2) (Homo sapiens, UniProt P58004); assay: thermal shift assay, Sypro orange; assay type: binding; settings: maximal shift
T4 sequence (P58004 1-480): T1 sequence (P58004 1-480 L261A) with A261L

Sestrin2 (FLAG-Sestrin2) [3] = molecular target: T5, Sestrin2 (FLAG-Sestrin2) (Homo sapiens, UniProt P58004, E451A); assay: [3H]Leucine binding, FLAG immunoprecipitate on beads; settings: labelled compound
T5 sequence (P58004 1-480 E451A): T1 sequence (P58004 1-480 L261A) with A261L, E451A

Sestrin2 (FLAG-Sestrin2) [4] = molecular target: T6, Sestrin2 (FLAG-Sestrin2) (Homo sapiens, UniProt P58004, S190W); assay: as above; settings: labelled compound
T6 sequence (P58004 1-480 S190W): T1 sequence (P58004 1-480 L261A) with S190W, A261L

Sestrin2-GATOR2 complex = Sestrin2-GATOR2 complex (Homo sapiens, UniProt P58004); assay: disruption of immunopurified Sestrin2-GATOR2 complex, immunoblot; assay type: binding; settings: 300 µM amino acid
Sequence of Sestrin2-GATOR2 complex (P58004 whole entry): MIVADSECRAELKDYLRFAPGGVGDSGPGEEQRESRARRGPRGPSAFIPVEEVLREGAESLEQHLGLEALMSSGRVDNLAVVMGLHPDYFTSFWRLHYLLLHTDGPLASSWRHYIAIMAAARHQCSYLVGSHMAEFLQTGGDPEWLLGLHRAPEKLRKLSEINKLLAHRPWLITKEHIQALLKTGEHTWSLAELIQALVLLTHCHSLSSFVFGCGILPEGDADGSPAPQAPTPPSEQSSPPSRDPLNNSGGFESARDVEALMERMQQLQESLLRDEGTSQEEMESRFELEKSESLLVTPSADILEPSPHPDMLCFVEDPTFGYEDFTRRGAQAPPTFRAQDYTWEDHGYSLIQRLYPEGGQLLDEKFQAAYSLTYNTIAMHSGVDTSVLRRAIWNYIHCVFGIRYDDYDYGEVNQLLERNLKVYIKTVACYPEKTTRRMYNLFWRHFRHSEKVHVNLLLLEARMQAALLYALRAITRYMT
Sequence of Sestrin2-GATOR2 complex (Q96S15 whole entry partner): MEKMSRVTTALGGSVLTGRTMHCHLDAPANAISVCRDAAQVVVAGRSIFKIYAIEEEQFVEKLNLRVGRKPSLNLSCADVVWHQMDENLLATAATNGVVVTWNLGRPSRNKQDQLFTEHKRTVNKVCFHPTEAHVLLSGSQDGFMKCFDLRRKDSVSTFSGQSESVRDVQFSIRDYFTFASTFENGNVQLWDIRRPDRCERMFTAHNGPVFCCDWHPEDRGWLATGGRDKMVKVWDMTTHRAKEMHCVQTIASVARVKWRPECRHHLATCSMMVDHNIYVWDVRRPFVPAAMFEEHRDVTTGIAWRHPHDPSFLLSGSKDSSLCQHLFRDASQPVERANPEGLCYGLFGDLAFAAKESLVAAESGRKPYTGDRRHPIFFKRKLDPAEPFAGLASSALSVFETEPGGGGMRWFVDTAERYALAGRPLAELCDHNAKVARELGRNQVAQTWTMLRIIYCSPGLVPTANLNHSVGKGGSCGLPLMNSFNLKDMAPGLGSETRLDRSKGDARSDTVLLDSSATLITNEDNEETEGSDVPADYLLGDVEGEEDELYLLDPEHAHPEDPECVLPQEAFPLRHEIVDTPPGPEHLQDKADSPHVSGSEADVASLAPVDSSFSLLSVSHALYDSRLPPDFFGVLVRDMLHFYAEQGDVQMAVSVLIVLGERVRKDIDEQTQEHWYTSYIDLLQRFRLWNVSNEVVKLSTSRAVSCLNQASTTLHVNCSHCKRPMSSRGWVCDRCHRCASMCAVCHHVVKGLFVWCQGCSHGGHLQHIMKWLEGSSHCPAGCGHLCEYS
Sequence of Sestrin2-GATOR2 complex (Q9NXC5 whole entry partner): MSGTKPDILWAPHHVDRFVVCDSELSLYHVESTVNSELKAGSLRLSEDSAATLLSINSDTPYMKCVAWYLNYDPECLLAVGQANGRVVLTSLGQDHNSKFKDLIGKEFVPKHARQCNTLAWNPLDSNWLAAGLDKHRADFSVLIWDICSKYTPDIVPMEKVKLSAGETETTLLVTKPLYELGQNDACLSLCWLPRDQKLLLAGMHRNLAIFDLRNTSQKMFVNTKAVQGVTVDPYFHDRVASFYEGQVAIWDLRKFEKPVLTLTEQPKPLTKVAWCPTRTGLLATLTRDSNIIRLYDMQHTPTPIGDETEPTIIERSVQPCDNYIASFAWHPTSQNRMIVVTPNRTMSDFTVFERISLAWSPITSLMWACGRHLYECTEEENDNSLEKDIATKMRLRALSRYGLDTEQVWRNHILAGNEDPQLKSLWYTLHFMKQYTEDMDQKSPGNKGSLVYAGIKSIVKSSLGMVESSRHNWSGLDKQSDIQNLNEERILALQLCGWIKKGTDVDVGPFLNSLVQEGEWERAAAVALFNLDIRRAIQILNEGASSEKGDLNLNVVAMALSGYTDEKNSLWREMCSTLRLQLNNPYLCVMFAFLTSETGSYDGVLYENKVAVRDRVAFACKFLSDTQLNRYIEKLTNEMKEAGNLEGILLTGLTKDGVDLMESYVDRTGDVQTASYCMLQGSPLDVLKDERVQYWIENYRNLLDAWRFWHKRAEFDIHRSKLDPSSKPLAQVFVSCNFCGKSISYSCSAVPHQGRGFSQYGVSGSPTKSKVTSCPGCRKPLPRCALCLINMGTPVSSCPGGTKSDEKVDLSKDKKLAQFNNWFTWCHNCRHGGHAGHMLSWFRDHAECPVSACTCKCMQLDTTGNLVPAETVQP
Sequence of Sestrin2-GATOR2 complex (Q6PJI9 whole entry partner): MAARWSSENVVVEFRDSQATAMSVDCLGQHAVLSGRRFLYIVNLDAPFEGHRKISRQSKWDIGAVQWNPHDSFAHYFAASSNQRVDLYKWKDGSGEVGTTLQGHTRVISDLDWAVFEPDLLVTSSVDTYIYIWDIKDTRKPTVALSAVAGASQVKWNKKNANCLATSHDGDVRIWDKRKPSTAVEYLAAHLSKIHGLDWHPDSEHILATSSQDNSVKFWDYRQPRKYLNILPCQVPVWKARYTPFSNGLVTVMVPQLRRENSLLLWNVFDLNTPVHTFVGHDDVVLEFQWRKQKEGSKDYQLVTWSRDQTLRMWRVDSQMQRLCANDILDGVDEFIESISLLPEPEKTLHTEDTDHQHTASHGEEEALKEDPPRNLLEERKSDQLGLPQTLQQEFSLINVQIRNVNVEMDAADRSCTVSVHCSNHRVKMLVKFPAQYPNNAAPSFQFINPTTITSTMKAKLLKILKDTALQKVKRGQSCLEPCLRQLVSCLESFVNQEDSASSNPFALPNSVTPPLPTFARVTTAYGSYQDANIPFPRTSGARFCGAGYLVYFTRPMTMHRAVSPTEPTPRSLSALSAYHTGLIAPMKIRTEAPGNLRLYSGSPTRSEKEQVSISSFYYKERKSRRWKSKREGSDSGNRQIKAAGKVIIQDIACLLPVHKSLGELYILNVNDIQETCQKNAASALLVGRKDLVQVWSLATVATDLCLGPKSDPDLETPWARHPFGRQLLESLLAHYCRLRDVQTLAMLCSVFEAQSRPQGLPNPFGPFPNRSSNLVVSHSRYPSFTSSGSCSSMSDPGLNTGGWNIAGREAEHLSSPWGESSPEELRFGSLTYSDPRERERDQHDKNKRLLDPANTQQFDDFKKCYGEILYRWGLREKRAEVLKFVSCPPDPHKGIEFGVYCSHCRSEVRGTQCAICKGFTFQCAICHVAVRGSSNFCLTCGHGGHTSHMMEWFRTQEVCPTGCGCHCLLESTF
Sequence of Sestrin2-GATOR2 complex (Q96EE3 whole entry partner): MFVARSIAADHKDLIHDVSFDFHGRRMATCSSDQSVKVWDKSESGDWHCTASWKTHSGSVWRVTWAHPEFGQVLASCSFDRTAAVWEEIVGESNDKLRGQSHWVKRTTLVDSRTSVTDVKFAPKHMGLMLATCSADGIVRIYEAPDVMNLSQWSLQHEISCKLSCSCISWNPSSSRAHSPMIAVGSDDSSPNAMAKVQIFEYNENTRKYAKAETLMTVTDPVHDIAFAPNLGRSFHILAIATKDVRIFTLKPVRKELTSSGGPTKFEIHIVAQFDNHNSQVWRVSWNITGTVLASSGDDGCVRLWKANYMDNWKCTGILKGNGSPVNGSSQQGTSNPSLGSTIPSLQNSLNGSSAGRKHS
Sequence of Sestrin2-GATOR2 complex (P55735 2-322 partner): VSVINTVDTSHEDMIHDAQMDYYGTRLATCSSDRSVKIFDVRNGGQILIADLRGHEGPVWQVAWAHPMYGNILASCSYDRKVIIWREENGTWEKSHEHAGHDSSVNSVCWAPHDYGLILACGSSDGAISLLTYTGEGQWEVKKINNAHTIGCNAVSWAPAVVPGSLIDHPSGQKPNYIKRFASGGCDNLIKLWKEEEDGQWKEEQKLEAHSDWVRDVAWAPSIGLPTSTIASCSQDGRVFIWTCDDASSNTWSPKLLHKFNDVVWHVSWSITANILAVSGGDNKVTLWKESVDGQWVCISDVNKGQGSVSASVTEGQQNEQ

very weak binding (Sestrin3)	melting temperature shift (dTm) [2]	Structure (SMILES)	no appreciable binding (Sestrin2 (FLAG-Sestrin2) [1])	[3H]Leucine binding, FLAG immunoprecipitate on beads (Sestrin1 (two isoforms))	no appreciable binding (Sestrin2 (FLAG-Sestrin2) [3])	[3H]Leucine binding, FLAG immunoprecipitate on beads (Sestrin2 (FLAG-Sestrin2) [4])	disruption of immunopurified Sestrin2-GATOR2 complex, immunoblot (Sestrin2-GATOR2 complex)
Sestrin3 bound very weakly	up to 8.5 °C	CC(C)C[C@H](N)C(=O)O [leucine]	L261A and E451A, which do not bind leucine to an appreciable degree	Sestrin1 bound leucine to a similar extent as did Sestrin2	L261A and E451A, which do not bind leucine to an appreciable degree	Sestrin2 mutant (S190W) that still binds leucine	
		CC(C)[C@H](N)C(=O)O [valine]					methionine, isoleucine, and valine– had any effect on the Sestrin2-GATOR2 interaction in vitro

From PMC4698017 (Science (New York, N.Y.), 2015)
